Test results from ChEMBL document CHEMBL1201862, “PubChem BioAssay data set” (2004).
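1) Cells in 96-well plates. 2) Compound, 48 h, 5 concentrations. 3) Linear interpolation between surrounding doses. 4) Unreached endpoint = highest concentration. GI50 = concentration required for 50% inhibition of growth.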 Activity calls are given as the source filed them. No stated cut-off is given here; in the data, active = GI50 up to about 1.1 µM and inactive = higher.

Assays:
Test in all cases: inhibition of tumour cell growth, NCI panel, 48 h
NCI-H226 = system: NCI-H226
786-0 = system: 786-0
EKVX = system: EKVX
UO-31 = system: UO-31
A498 = system: A498
A549 = system: A549
COLO 205 = system: COLO 205
OVCAR-3 = system: OVCAR-3
Malme-3M = system: Malme-3M
SK-OV-3 = system: SK-OV-3
SK-MEL-28 = system: SK-MEL-28
M19-MEL = system: M19-MEL
OVCAR-8 = system: OVCAR-8
DLD-1 = system: DLD-1
M14 = system: M14
K562 = system: K562
NCI-H522 = system: NCI-H522
RXF 631 = system: RXF 631
SNB-75 = system: SNB-75
HOP-92 = system: HOP-92
HCC 2998 = system: HCC 2998
SF-539 = system: SF-539
HT-29 = system: HT-29
UACC-62 = system: UACC-62
XF498 = system: XF498
SR = system: SR
LXFL 529 = system: LXFL 529
RXF 393 = system: RXF 393
KM-20L2 = system: KM-20L2
U-251 = system: U-251
IGROV-1 = system: IGROV-1
SN12C = system: SN12C
NCI-H460 = system: NCI-H460
SF-268 = system: SF-268
NCI-H23 = system: NCI-H23
HCT-116 = system: HCT-116
HL-60 = system: HL-60
KM12 = system: KM12
SF-295 = system: SF-295
TK-10 = system: TK-10
OVCAR-4 = system: OVCAR-4
SW-620 = system: SW-620
SNB-78 = system: SNB-78
HOP-62 = system: HOP-62
DMS-114 = system: DMS-114
SNB-19 = system: SNB-19
HOP-18 = system: HOP-18
UACC-257 = system: UACC-257
SK-MEL-5 = system: SK-MEL-5
LOX IMVI = system: LOX IMVI
CAKI-1 = system: CAKI-1
CCRF-CEM = system: CCRF-CEM
ACHN = system: ACHN
DMS-273 = system: DMS-273
OVCAR-5 = system: OVCAR-5
MOLT-4 = system: MOLT-4
HCT-15 = system: HCT-15
RPMI-8226 = system: RPMI-8226
SK-MEL-2 = system: SK-MEL-2

Measured: GI50

COc1nc2c(nc(N)n2C2OC(CO)C(O)C(O)C2O)c(=O)n1C (centres undefined)
inactive: NCI-H226 > 100 µM | 786-0 > 100 µM | EKVX > 100 µM | UO-31 > 100 µM | A498 > 100 µM | A549 > 100 µM | COLO 205 > 100 µM | OVCAR-3 > 100 µM | Malme-3M > 100 µM | SK-OV-3 > 100 µM | SK-MEL-28 > 100 µM | M19-MEL > 100 µM | OVCAR-8 > 100 µM | DLD-1 > 100 µM | M14 > 100 µM | K562 > 100 µM | NCI-H522 > 100 µM | RXF 631 > 100 µM | SNB-75 > 100 µM | HOP-92 > 100 µM | HCC 2998 > 100 µM | SF-539 > 100 µM | HT-29 > 100 µM | UACC-62 > 100 µM | XF498 75.3 µM | SR > 100 µM | LXFL 529 > 100 µM | RXF 393 > 100 µM | KM-20L2 > 100 µM | U-251 > 100 µM | IGROV-1 > 100 µM | SN12C > 100 µM | NCI-H460 > 100 µM | SF-268 > 100 µM | NCI-H23 > 100 µM | HCT-116 > 100 µM | HL-60 > 100 µM | KM12 > 100 µM | SF-295 > 100 µM | TK-10 > 100 µM | OVCAR-4 > 100 µM | SW-620 > 100 µM | SNB-78 > 100 µM | HOP-62 > 100 µM | DMS-114 > 100 µM | SNB-19 > 100 µM | HOP-18 > 100 µM | UACC-257 > 100 µM | SK-MEL-5 > 100 µM | LOX IMVI > 100 µM | CAKI-1 > 100 µM | CCRF-CEM > 100 µM | ACHN > 100 µM

Nc1c(Br)c(=O)[nH]c(=O)n1COCCO
inactive: 786-0 > 100 µM | UO-31 > 100 µM | A549 > 100 µM | COLO 205 > 100 µM | OVCAR-3 > 100 µM | Malme-3M > 100 µM | SK-MEL-28 > 100 µM | M19-MEL > 100 µM | OVCAR-8 > 100 µM | DMS-273 > 100 µM | DLD-1 > 100 µM | M14 > 100 µM | K562 > 100 µM | NCI-H522 > 100 µM | RXF 631 > 100 µM | SNB-75 > 100 µM | HOP-92 > 100 µM | HCC 2998 > 100 µM | SF-539 > 100 µM | HT-29 > 100 µM | UACC-62 > 100 µM | XF498 > 100 µM | SR > 100 µM | LXFL 529 > 100 µM | RXF 393 > 100 µM | U-251 > 100 µM | IGROV-1 > 100 µM | SN12C > 100 µM | NCI-H460 > 100 µM | SF-268 > 100 µM | NCI-H23 > 100 µM | HCT-116 > 100 µM | HL-60 > 100 µM | KM12 > 100 µM | SF-295 > 100 µM | TK-10 > 100 µM | OVCAR-4 > 100 µM | SW-620 > 100 µM | SNB-78 > 100 µM | HOP-62 > 100 µM | DMS-114 > 100 µM | SNB-19 > 100 µM | HOP-18 > 100 µM | UACC-257 > 100 µM | SK-MEL-5 > 100 µM | LOX IMVI > 100 µM | CAKI-1 > 100 µM | OVCAR-5 > 100 µM | MOLT-4 > 100 µM | CCRF-CEM > 100 µM | ACHN > 100 µM

Nc1nc(-c2ccc(Cl)c([N+](=O)[O-])c2)cs1
inactive: 786-0 59.4 µM | EKVX 94.8 µM | UO-31 78.9 µM | A498 20 µM | A549 > 100 µM | COLO 205 > 100 µM | OVCAR-3 > 100 µM | Malme-3M > 100 µM | SK-OV-3 > 100 µM | M19-MEL > 100 µM | OVCAR-8 > 100 µM | DMS-273 > 100 µM | DLD-1 > 100 µM | M14 > 100 µM | K562 > 100 µM | RXF 631 > 100 µM | SNB-75 30.4 µM | HOP-92 16.2 µM | HCC 2998 > 100 µM | SF-539 28.7 µM | HT-29 > 100 µM | UACC-62 > 100 µM | XF498 27.5 µM | LXFL 529 > 100 µM | RXF 393 29.3 µM | KM-20L2 > 100 µM | U-251 40.6 µM | IGROV-1 > 100 µM | SN12C > 100 µM | NCI-H460 > 100 µM | SF-268 86.5 µM | NCI-H23 73.5 µM | HCT-116 58.7 µM | HL-60 > 100 µM | KM12 71 µM | SF-295 45.9 µM | TK-10 > 100 µM | OVCAR-4 > 100 µM | SW-620 > 100 µM | SNB-78 52.5 µM | HOP-62 > 100 µM | DMS-114 64.7 µM | SNB-19 68.2 µM | RPMI-8226 > 100 µM | HOP-18 35.4 µM | UACC-257 > 100 µM | SK-MEL-5 > 100 µM | LOX IMVI > 100 µM | CAKI-1 80 µM | OVCAR-5 > 100 µM | MOLT-4 97.3 µM | SK-MEL-2 > 100 µM | CCRF-CEM > 100 µM | ACHN > 100 µM
> 100 µM: HCT-15
